Key:
[1] = target: T1, human NLRP3 (Homo sapiens (Human), UniProt Q96P20); experiment: Scintillation Proximity (SPA) NLRP3 Assay: displacement of 3H-MCC950; assay type: binding
[2] = target: T1, human NLRP3; experiment: Human PBMC NLRP3 Assay (LPS priming, ATP stimulation, cytokine measurement); assay type: cell-based; details: for IC50: read-out: PBMC IC50
[3] = displacement of 3H-MCC950, read-out: SPA IC50
[4] = human PBMC, LPS priming, ATP stimulation
[5] = SPA IC50, displacement of 3H-MCC950

T1 sequence (Q96P20 whole entry): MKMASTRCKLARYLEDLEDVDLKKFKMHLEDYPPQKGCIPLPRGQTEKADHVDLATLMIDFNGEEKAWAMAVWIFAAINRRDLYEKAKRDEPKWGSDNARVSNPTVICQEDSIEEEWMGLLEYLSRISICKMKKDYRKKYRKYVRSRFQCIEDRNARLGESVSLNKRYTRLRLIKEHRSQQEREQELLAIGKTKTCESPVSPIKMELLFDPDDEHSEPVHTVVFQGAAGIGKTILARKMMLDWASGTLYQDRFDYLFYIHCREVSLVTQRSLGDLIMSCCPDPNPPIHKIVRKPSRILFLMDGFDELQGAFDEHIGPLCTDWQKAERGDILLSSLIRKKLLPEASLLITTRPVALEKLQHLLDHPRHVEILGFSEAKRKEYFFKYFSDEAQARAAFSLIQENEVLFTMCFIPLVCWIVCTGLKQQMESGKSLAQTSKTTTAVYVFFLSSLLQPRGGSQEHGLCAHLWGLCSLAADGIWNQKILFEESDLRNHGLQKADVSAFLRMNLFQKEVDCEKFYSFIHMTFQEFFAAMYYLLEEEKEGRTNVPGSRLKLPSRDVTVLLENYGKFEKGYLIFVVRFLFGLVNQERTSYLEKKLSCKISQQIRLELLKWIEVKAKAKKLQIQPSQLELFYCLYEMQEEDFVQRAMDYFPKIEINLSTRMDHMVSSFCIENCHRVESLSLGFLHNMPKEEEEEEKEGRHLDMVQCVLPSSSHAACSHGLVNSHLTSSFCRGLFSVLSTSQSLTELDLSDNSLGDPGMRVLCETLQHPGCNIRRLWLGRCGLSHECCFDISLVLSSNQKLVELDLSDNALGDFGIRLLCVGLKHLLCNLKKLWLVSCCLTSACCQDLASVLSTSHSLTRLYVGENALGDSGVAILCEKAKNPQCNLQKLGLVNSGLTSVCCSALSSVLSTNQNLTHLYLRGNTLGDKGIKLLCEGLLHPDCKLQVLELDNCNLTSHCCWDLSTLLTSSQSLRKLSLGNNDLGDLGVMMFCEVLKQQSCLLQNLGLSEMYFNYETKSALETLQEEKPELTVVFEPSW

Work on `C[C@H]1CCN(c2nnn[nH]2)C[C@@H](NC(=O)C2(c3ccc(Cl)c(F)c3O)CC2)C1` (single isomer, unassigned) [18D*, 1-(4-chloro-3-fluoro-2-hydroxyphenyl)-N-(5-methyl-1-(1H-tetrazol-5-yl)azepan-3-yl)cyclopropane-1-carboxamide] yielded an IC50 [1, 3] of less than 1 µM and an IC50 [2, 4] of 100 to 500 nM.

`C[C@@H]1CCN(c2nnn[nH]2)C[C@H](NC(=O)C2(c3ccc(C(F)(F)F)cc3F)CC2)C1` (single isomer, unassigned) [68A*] gave an IC50 [1, 3] of less than 1 µM and an IC50 [2, 4] of less than 10 nM.

For `C[C@@H]1CCN(c2nnn[nH]2)C[C@H](NC(=O)C2(c3cc(F)c(C(F)(F)F)cc3F)CC2)C1` (single isomer, unassigned) [7A*, 1-(2,5-difluoro-4-(trifluoromethyl)phenyl)-N-(5-methyl-1-(1H-tetrazol-5-yl)azepan-3-yl)cyclopropane-1-carboxamide], the IC50 [1, 3] was less than 1 µM and the IC50 [2, 4] was 10 to 100 nM.

`C[C@H]1CCN(c2nnn[nH]2)C[C@H](NC(=O)C2(c3ccc(Cl)c(F)c3O)CC2)C1` (single isomer, unassigned) [18C*, 1-(4-chloro-3-fluoro-2-hydroxyphenyl)-N-(5-methyl-1-(1H-tetrazol-5-yl)azepan-3-yl)cyclopropane-1-carboxamide] gave an IC50 [1, 3] of 10 to 50 µM and an IC50 [2, 4] of 100 to 500 nM.

For `O=C(N[C@H]1CCCN(c2ccccc2)C1)c1ccc(Cl)cc1` [Comparative Example J2, (S)-4-chloro-N-(1-phenylpiperidin-3-yl)benzamide, reference compound], the IC50 [2] was greater than 100000 nM.

Work on `C[C@@H]1CCN(c2nnn[nH]2)C[C@H](NC(=O)C2(c3ccc(SC(F)(F)F)cc3)CC2)C1` (single isomer, unassigned) [69A*] yielded an IC50 [1, 3] of less than 1 µM and an IC50 [2, 4] of 10 to 100 nM.

In the case of `O=C(N[C@@H]1CCCN(c2nnn[nH]2)C1)C1(c2ccc(Cl)cc2F)CC1` [Compound 105, (R)-N-(1-(1H-tetrazol-5-yl)piperidin-3-yl)-1-(4-chloro-2-fluorophenyl)cyclopropane-1-carboxamide], the IC50 [2, 4] is reported as greater than 500 nM, the IC50 [2] is reported as 850 nM and the “fold increase in potency as measured by PBMC IC50” value ([2]; relative to Compound 10A) is reported as 2.5 fold.

With `O=C(Cc1ccc(Cl)cc1)N[C@@H]1CCCN(c2nnn[nH]2)C1` [Comparative Example H, (R)-N-(1-(1H-tetrazol-5-yl)piperidin-3-yl)-2-(4-chlorophenyl)acetamide, reference compound] the IC50 [2] was 10500 nM.

`O=C(N[C@@H]1CCCN(c2nnn[nH]2)C1)c1ccc(Cl)cc1` [Comparative Example G, (R)-N-(1-(1H-tetrazol-5-yl)piperidin-3-yl)-4-chlorobenzamide, reference compound] was tested, and the IC50 [2] was greater than 100000 nM.

In the case of `C[C@@H]1CCN(c2nnn[nH]2)C[C@H](NC(=O)C2(c3ccc(OC(F)F)cc3F)CC2)C1` (single isomer, unassigned) [3A*], the IC50 [1, 3] is reported as less than 1 µM and the IC50 [2, 4] is reported as 10 to 100 nM.

Work on `C[C@@H]1CCN(c2nnn[nH]2)C[C@H](NC(=O)C2(c3ccc(OC(F)F)c(F)c3)CC2)C1` (single isomer, unassigned) [73A*] yielded an IC50 [1, 3] of less than 1 µM and an IC50 [2, 4] of 10 to 100 nM.

`C[C@@H]1CCN(c2nnn[nH]2)C[C@@H](NC(=O)C2(c3ccc(C(F)F)cc3O)CC2)C1` (single isomer, unassigned) [30B*, 1-(4-(difluoromethyl)-2-hydroxyphenyl)-N-(5-methyl-1-(1H-tetrazol-5-yl)azepan-3-yl)cyclopropane-1-carboxamide] gave an IC50 [1, 3] of less than 1 µM and an IC50 [2, 4] of 10 to 100 nM.

Work on `Cn1nnnc1N1CCC[C@@H](NC(=O)C2(c3ccc(Cl)cc3)CC2)C1` [Comparative Example F, (R)-1-(4-chlorophenyl)-N-(1-(1-methyl-1H-tetrazol-5-yl)piperidin-3-yl)cyclopropane-1-carboxamide, reference compound] yielded an IC50 [2] of 8400 nM.

With `O=C(N[C@@H]1CC[C@H]2CC[C@@H]1N2c1nnn[nH]1)C1(c2ccc(OC(F)F)cc2)CC1` [Compound 106, N-((1S,2R,5S)-8-(1H-tetrazol-5-yl)-8-azabicyclo[3.2.1]octan-2-yl)-1-(4-(difluoromethoxy)phenyl)cyclopropane-1-carboxamide] the IC50 [2, 4] was greater than 500 nM.

With `O=C(N[C@@H]1CCCN(c2ccccc2)C1)c1ccc(Cl)cc1` [Comparative Example J1, (R)-4-chloro-N-(1-phenylpiperidin-3-yl)benzamide, reference compound] the IC50 [2] was greater than 100000 nM.

Compound `Cc1ccc(C2(C(=O)N[C@H]3C[C@H](C)[C@H]4CC[C@@H]3N4c3nnn[nH]3)CC2)cc1` [87D*, N-((1S,2S,4S,5R)-4-methy1-8-(1H-tetrazol-5-yl)-8-azabicyclo[3.2.1]octan-2-yl)-1-(p-tolyl)cyclopropane-1-carboxamide] has an IC50 [1, 3] greater than 100 µM.

For `C[C@H]1CC[C@H](NC(=O)C2(c3ccc(C4CC4)cc3O)CC2)CN(c2nnn[nH]2)C1` (single isomer, unassigned) [91B*], the IC50 [1, 3] was less than 1 µM.

`CC(C)c1ccc(C2(C(=O)N[C@@H]3C[C@@H](C)CCN(c4nnn[nH]4)C3)CC2)c(O)c1` (single isomer, unassigned) [27C*, 1-(2-hydroxy-4-isopropylphenyl)-N-(5-methyl-1-(1H-tetrazol-5-yl)azepan-3-yl)cyclopropane-1-carboxamide] was tested, and the IC50 [1, 3] was 50 to 100 µM.

With `C[C@H]1C[C@H]2CC[C@@H]([C@@H](NC(=O)C3(c4ccc(C(F)(F)F)cc4)CC3)C1)N2c1nnn[nH]1` [104H*, N-((1S,2S,4R,6R)-4-methyl-9-(1H-tetrazol-5-yl)-9-azabicyclo[4.2.1]nonan-2-yl)-1-(4-(trifluoromethyl)phenyl)cyclopropane-1-carboxamide] the IC50 [1, 5] was 50 to 100 µM.

Compound `C[C@@H]1CC[C@@H](NC(=O)C2(c3ccc(Cl)cc3)CC2)CN(c2nnn[nH]2)C1` (single isomer, unassigned) [36C*, 1-(4-chlorophenyl)-N-(6-methyl-1-(1H-tetrazol-5-yl)azepan-3-yl)cyclopropane-1-carboxamide] has an IC50 [1, 3] greater than 100 µM.

Work on `C[C@@H]1CCN(c2nnn[nH]2)C[C@@H](NC(=O)C2(c3ccc(OC(F)(F)F)cc3)CC2)C1` (single isomer, unassigned) [57B*] yielded an IC50 [1, 3] of 1 to 10 µM.

In the case of `C[C@H]1C[C@H](NC(=O)C2(c3ccc(OC(F)F)cc3F)CC2)[C@@H]2CC[C@H]1N2c1nnn[nH]1` (stereo in doubt) [101D*, 1-(4-(difluoromethoxy)-2-fluorophenyl)-N-(4-methyl-8-(1H-tetrazol-5-yl)-8-azabicyclo[3.2.1]octan-2-yl)cyclopropane-1-carboxamide], the IC50 [1, 3] is reported as 10 to 50 µM.

Compound `C[C@H]1C[C@H](NC(=O)C2(c3ccc(C(F)(F)F)cc3F)CC2)[C@@H]2CC[C@H]1N2c1nnn[nH]1` [84D*, 1-(2-fluoro-4-(trifluoromethyl)phenyl)-N-((1S,2S,4S,5R)-4-methy1-8-(1H-tetrazol-5-yl)-8-azabicyclo[3.2.1]octan-2-yl)cyclopropane-1-carboxamide] has an IC50 [1, 3] greater than 100 µM.

For `O=C(N[C@@H]1C[C@H](F)CN(c2nnn[nH]2)C1)C1(c2ccc(Cl)cc2)CC1` [Compound 44A, 1-(4-chlorophenyl)-N-[(3R,5S)-5-fluoro-1-(1H-tetrazol-5-yl)-3-piperidyl]cyclopropanecarboxamide], the IC50 [1, 3] was greater than 100 µM.

`C[C@@H]1CCN(c2nnn[nH]2)C[C@@H](NC(=O)C2(c3ccc(C4CC4)cc3)CC2)C1` (single isomer, unassigned) [2B*] was tested, and the IC50 [1, 3] was 1 to 10 µM.

With `C[C@H]1C[C@H]2CC[C@@H]([C@H](NC(=O)C3(c4ccc(C(F)(F)F)cc4)CC3)C1)N2c1nnn[nH]1` [104G*, N-((1S,2R,4R,6R)-4-methyl-9-(1H-tetrazol-5-yl)-9-azabicyclo[4.2.1]nonan-2-yl)-1-(4-(trifluoromethyl)phenyl)cyclopropane-1-carboxamide] the IC50 [1, 5] was 50 to 100 µM.

`C[C@H]1CCN(c2nnn[nH]2)C[C@H](NC(=O)C2(c3ccc(OC(F)F)cc3F)CC2)C1` (single isomer, unassigned) [3C*] was tested, and the IC50 [1, 3] was greater than 100 µM.

Compound `O=C(N[C@H]1CCC[C@@H]2CC[C@H]1N2c1nnn[nH]1)C1(c2ccc(Cl)cc2)CC1` (single isomer, unassigned) [9B*, N-(9-(1H-tetrazol-5-yl)-9-azabicyclo[4.2.1]nonan-2-yl)-1-(4-chlorophenyl)cyclopropane-1-carboxamide] has an IC50 [1, 5] greater than 100 µM.

Compound `C[C@@H]1CC[C@@H](NC(=O)C2(c3ccc(Cl)cc3O)CC2)CN(c2nnn[nH]2)C1` (single isomer, unassigned) [90C*] has an IC50 [1, 3] of 10 to 50 µM.

`C[C@@H]1C[C@H](NC(=O)C2(c3ccc(OC(F)F)cc3)CC2)[C@H]2CC[C@@H]1N2c1nnn[nH]1` (single isomer, unassigned) [35B*] was tested, and the IC50 [1, 3] was 50 to 100 µM.

Compound `CC(C)c1ccc(C2(C(=O)N[C@H]3C[C@H](C)CCN(c4nnn[nH]4)C3)CC2)c(O)c1` (single isomer, unassigned) [27B*, 1-(2-hydroxy-4-isopropylphenyl)-N-(5-methyl-1-(1H-tetrazol-5-yl)azepan-3-yl)cyclopropane-1-carboxamide] has an IC50 [1, 3] of 1 to 10 µM.

With `C[C@H]1CCN(c2nnn[nH]2)C[C@H](NC(=O)C2(c3ccc(Cl)nc3O)CC2)C1` (single isomer, unassigned) [100C*] the IC50 [1, 3] was greater than 100 µM.

With `C[C@H]1CCN(c2nnn[nH]2)C[C@@H](NC(=O)C2(c3ccc(OC(F)(F)F)c(F)c3O)CC2)C1` (single isomer, unassigned) [28D*, 1-(3-fluoro-2-hydroxy-4-(trifluoromethoxy)phenyl)-N-(5-methyl-1-(1H-tetrazol-5-yl)azepan-3-yl)cyclopropane-1-carboxamide] the IC50 [1, 3] was 1 to 10 µM.

Work on `O=C(N[C@H]1CCC[C@H]2CC[C@@H]1N2c1nnn[nH]1)C1(c2ccc(Cl)cc2)CC1` (single isomer, unassigned) [9D*, N-(9-(1H-tetrazol-5-yl)-9-azabicyclo[4.2.1]nonan-2-yl)-1-(4-chlorophenyl)cyclopropane-1-carboxamide] yielded an IC50 [1, 5] of 10 to 50 µM.

`O=C(N[C@@H]1C[C@@H](F)CN(c2nnn[nH]2)C1)C1(c2ccc(Cl)cc2)CC1` [Compound 44C, 1-(4-chlorophenyl)-N-[(3R,5R)-5-fluoro-1-(1H-tetrazol-5-yl)-3-piperidyl]cyclopropanecarboxamide] was tested, and the IC50 [1, 3] was 10 to 50 µM.

Compound `O=C(NC1CC(C2CC2)CN(c2nnn[nH]2)C1)C1(c2ccc(Cl)cc2)CC1` (single isomer, unassigned) [Rac-13A*/D*, 1-(4-chlorophenyl)-N-(5-cyclopropyl-1-(1H-tetrazol-5-yl)piperidin-3-yl)cyclopropane-1-carboxamide] has an IC50 [1, 3] of 1 to 10 µM.

From patent publication US20260007684A1, “AMIDE DERIVATIVES FOR INHIBITING NLRP3 AND USES THEREOF” (Ventus Therapeutics U.S., Inc., priority 2023, published 2026)
